In patent publication US11421145B2, “Oil recovery methods using a formulation containing an unsaturated zwitterionic surfactant and a polymer” (King Fahd University of Petroleum and Minerals, priority 2019, dated 2022):
“Also recorded” adds a separate entry of the source.

Legend:
[1] = Long-term thermal stability: aging at 90° C. for 15 days, phase behavior, NMR, FTIR; type: physicochemical
Protocol: The short-term thermal stability of the unsaturated surfactant was assessed using thermogravimetric analysis (TGA). The thermal stability for a longer period (2 weeks) was determined by FTIR and NMR. The synthesized unsaturated surfactant was dried and heated at 10° C./min in an SDT-Q600 instrument (TA Instruments) from room temperature to 600° C. under nitrogen atmosphere. The thermal stability for a longer period was determined by aging 1 wt % aqueous solution of the unsaturated surfactant at 90° C. for 15 days. FTIR, ^13C NMR, and ^1H NMR were used to identify the structural changes in the unsaturated surfactant after aging. A Nicolet 6700 spectrometer was used for FTIR analysis of the unsaturated surfactant, while a JEOL 500 MHz spectrometer was used for obtaining the NMR spectra.
For long-term thermal stability, 1 wt % surfactant solution was aged in sealed aging tubes at 90° C. for 15 days. […] The two methyl carbons directly attached to the quaternary nitrogen [—CH2—N^+—(CH3)2—CH2—] were detected at δ=50.8 ppm and the two methylene carbons directly attached to quaternary nitrogen [—CH2—N^+—(CH3)2—CH2—] at δ=62.2 and δ=62.7 ppm. The olefinic carbons in the unsaturated surfactant tail appeared at δ=129.6 and δ=130.0 ppm. The amide carbonyl group [—CH2—C═O—NH] resonated at δ=175.1 ppm. The peaks appearing in the ^13C-NMR spectra of the sample agreed with the proposed structure of the unsaturated surfactant. […] The carbons of two methyl groups connected with the central positively charged nitrogen [—CH2—N^+(CH3)2—CH2—] still present in the aged sample and were detected at δ=50.8 ppm. Similarly, the carbons of two methylene groups attached to the central positively charged nitrogen [—CH2—N^+(CH3)2—CH2—] were also detected at δ=62.2 and δ=62.7 ppm. […] In the ^1H-NMR spectrum of the unsaturated surfactant before aging (FIG. 5), the terminal methyl protons [—(CH2)n—CH3)] was detected at δ=0.84 ppm and the methylene protons [—(CH2)n—CH3)] in the unsaturated surfactant tail resonated at δ=1.23 ppm. […]

[2] = Surface tension by pendant-drop technique (CMC and surface properties); type: physicochemical
Protocol: The surface tension of the unsaturated surfactant in SW and FW at different temperatures was analyzed using a Biolin Scientific Attension instrument. The pendant-drop technique was used to measure the surface tension at 30° C. and 60° C. Other surface properties such as CMC, surface tension at CMC (γcmc), surfactant ability at lower surface tension (πcmc), maximum surface access (Γmax), and minimum area per molecule (Amin) were also obtained from the surface tension data. These surface properties were calculated using Eqs. 1-3,
where γ0 is the surface tension of the brine (FW or SW), NA is the Avogadro number, dγ/dlnC is the slope below CMC in the surface tension plot, C is the surfactant concentration in brine, T is temperature, R is the gas constant, and n=1 for zwitterionic surfactants [Wang, Y., Zhang, Y., Liu, X., Wang, J., Wei, L., & Feng, Y. (2014) Effect of a hydrophilic head group on Krafft temperature, surface activities and rheological behaviors of Erucyl Amidobetaines. Journal of Surfactants and Detergents, 17:295-301—incorporated herein by reference]. The interfacial tension between crude oil and water was measured using a spinning drop tensiometer from Kruss (SITE 100). All the reported points are the average equilibrium values.
Variations in the surface tension of the unsaturated surfactant with concentration at different temperatures and salinities are summarized in FIG. 7. […] The CMC and surface tension corresponding to the CMC (γcmc) were estimated from the breakpoint in surface tension versus concentration plots. […] A similar reduction in CMC with increasing NaCl concentration was reported for the alkyl amidosulfobetaine surfactant [Feng, Y., & Chu, Z. (2016) Correlating surface activity with structural and environmental parameters for alkylamidosulfobetaine surfactants. Colloid and Polymer Science, 294:957-963, incorporated herein by reference in its entirety]. However, in this disclosure, the reduction in the CMC was observed when SW was replaced with FW. The reduction in the CMC could be associated with the salting-out effect of the unsaturated surfactant hydrophobic tail, which got enhanced by increasing the salinity [Feng, Y., & Chu, Z. (2016) Correlating surface activity with structural and environmental parameters for alkylamidosulfobetaine surfactants. Colloid and Polymer Science, 294:957-963, incorporated herein by reference in its entirety].

long-term thermal stability ([1]; 90° C., 15 days, phase behavior, TGA, FTIR, NMR): excellent long-range thermal stability
Amin ([2]; FW, 60 °C): 0.28 nm^2
CMC ([2]; FW, 60 °C): 1.53 × × 10^−4 mol L^−1
Γmax × 10^6 ([2]; FW, 60 °C): 5.88 mol m^−2
γcmc ([2]; FW, 60 °C): 33.55 mN m^−1
πcmc ([2]; FW, 60 °C): 38.04 mN m^−1
Amin ([2]; SW, 30 °C): 0.22 nm^2
CMC ([2]; SW, 30 °C): 1.02 × × 10^−4 mol L^−1
Γmax × 10^6 ([2]; SW, 30 °C): 7.27 mol m^−2
γcmc ([2]; SW, 30 °C): 30.23 mN m^−1
πcmc ([2]; SW, 30 °C): 41.76 mN m^−1
Amin ([2]; SW, 60 °C): 0.29 nm^2
CMC ([2]; SW, 60 °C): 2.05 × × 10^−4 mol L^−1
Γmax × 10^6 ([2]; SW, 60 °C): 5.60 mol m^−2
γcmc ([2]; SW, 60 °C): 31.03 mN m^−1
πcmc ([2]; SW, 60 °C): 40.96 mN m^−1
CMC expressed as surfactant concentration ([2]; corresponding to 1.02×10^−4 mol L^−1): 0.005%
CMC ([2]; in FW (summary b150)): 0.000205 mol/L
CMC ([2]; in SW (summary b150)): 0.000102 mol/L
CMC ([2]; in SW and FW (as worded)): 0.000102 mol/L
Structure (SMILES): CCCCCCCC/C=C\CCCCCCCC(=O)NCCC[N+](C)(C)CCCS(=O)(=O)[O-] [unsaturated surfactant, 3-(N-oleamidopropyl-N,N-dimethylammonium) propane sulfonate]
appearance of solution after aging ([1]; 1 wt % surfactant solution, sealed tubes, 90° C., 15 days): remained clear and there was no phase separation or precipitation
structure after aging (1H/13C NMR, FTIR) ([1]; aged 15 days at 90° C.): survival of original structure; also recorded: no structure degradation
